According to article PMC3970910 (Biochemistry, 2013):

Key:
[1] = system: human osteoclast; settings: human osteoclasts in vitro; cited from earlier work
[2] = system: mouse osteoclast; settings: mouse osteoclasts in vitro; cited from earlier work
[3] = system: GPR18; settings: cited from earlier work
[4] = system: untransfected U2OS cells; assay: ERK1/2 phosphorylation in untransfected U2OS cells; assay type: cell-based

Compound: C=C(C)[C@@H]1CCC(C)=C[C@H]1c1c(O)cc(CCCCC)cc1O [CBD, cannabidiol]
- effect on osteoclast polarization and resorption produced by GPR55 agonists O-1602 and LPI [1]: attenuating the effects
- effect on osteoclast polarization and resorption produced by GPR55 agonists O-1602 and LPI [2]: attenuating the effects
- activity at GPR18 [3]: low efficacy agonist

Compound: L-α-lysophosphatidylinositol [LPI]
- Induction of ERK1/2 phosphorylation in untransfected U2OS cells [4]: neither LPI nor any of the antagonist compounds induced ERK1/2 phosphorylation
